Publication PMC11261597, “Three-Step Enzymatic Remodeling of Chitin into Bioactive Chitooligomers” (Journal of Agricultural and Food Chemistry, 2024)

Biological target: T1, BsPdaC (Bacillus subtilis, UniProt O34798)
T1 construct: gene pdaC
T1 sequence (O34798 278-467 limits assumed): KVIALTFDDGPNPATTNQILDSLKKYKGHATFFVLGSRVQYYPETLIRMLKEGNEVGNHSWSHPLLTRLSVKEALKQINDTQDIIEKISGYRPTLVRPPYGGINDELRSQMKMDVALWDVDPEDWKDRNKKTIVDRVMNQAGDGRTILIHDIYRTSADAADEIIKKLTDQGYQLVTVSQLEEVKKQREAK
Assay: deacetylation followed by HPLC-MS
Assay type: biochemical
Conditions: 2 mM substrate, 4 μM enzyme, PBS pH 7.5, 37 °C

CC(=O)N[C@H]1[C@H](O[C@H]2[C@H](O)[C@@H](NC(C)=O)C(O)O[C@@H]2CO)O[C@H](CO)[C@@H](O[C@@H]2O[C@H](CO)[C@@H](O[C@@H]3O[C@H](CO)[C@@H](O)[C@H](O)[C@H]3NC(C)=O)[C@H](O)[C@H]2NC(C)=O)[C@@H]1O (some centres unmarked) [CH4, N,N′,N″,N‴-tetraacetylchitotetraose]
deacetylation followed by HPLC-MS: BsPdaC exhibited an effective deacetylation of standard CH4 and CH5 substrates

CC(=O)N[C@H]1[C@H](O[C@H]2[C@H](O)[C@@H](NC(C)=O)[C@H](O[C@H]3[C@H](O)[C@@H](NC(C)=O)C(O)O[C@@H]3CO)O[C@@H]2CO)O[C@H](CO)[C@@H](O[C@@H]2O[C@H](CO)[C@@H](O[C@@H]3O[C@H](CO)[C@@H](O)[C@H](O)[C@H]3NC(C)=O)[C@H](O)[C@H]2NC(C)=O)[C@@H]1O (some centres unmarked) [CH5]
deacetylation followed by HPLC-MS: BsPdaC exhibited an effective deacetylation of standard CH4 and CH5 substrates
